Legend:
[1] = system: wild-type soybean line A3237; assay: Experiment I greenhouse test, seed imbibition, wild-type soybean; details: 0.25 mg/ml; seeds imbibed 5 hours
[2] = system: constitutively GA-deficient transgenic dwarf soybean line 719; assay: Experiment II second greenhouse test, seed imbibition, GA-deficient soybean; format: in vivo, Glycine max; details: seeds imbibed 6 hours
Method: (The compounds are tested in Experiment I at only one concentration, i.e., 0.25 mg/ml). Test tubes contained […] of ethanol solution per tube. Final volumes are made up to 30 ml with deionized water. After shaking, the treatment solutions (15 ml each) are transferred to each of two 50 ml test tubes. […] Twenty seeds are used in each treatment. Dry seed, ethanol/water-imbibed seed (1% ethanol in water, v/v), and water-imbibed seeds are included as controls. Seeds are imbibed for 6 hours in the test solutions, then planted in bread pans containing Metromix 350 (The Scotts Company, Marysville, Ohio), and covered with 0.5″ Metro-mix. Covered pans are transferred to the greenhouse and subirrigated. Illumination is at a light intensity of 300-400 μmolm^−2s^−1 photosynthetic photon flux; 16 hours light/8 hours dark. Subsequent waterings are also through sub-irrigation until the test is terminated three weeks later. Observations included the number of dwarf, intermediate, and tall plants; plant height; uniformity of rescue; and any visual effects. Digital photographs are also taken.

[3] = system: constitutively GA-deficient transgenic dwarf soybean line 719; assay: Experiment IV field test, seed imbibition, compacted soil; format: in vivo, Glycine max; details: for field result on line 719 in words: over the rates tested (0.0025-0.25 mg/ml); for No. of Dwarfs Not Rescued / Total Plants: imbibed 8 hours; for Total Plants: 25 seeds planted; for % of Dwarfs Rescued: relative to 8.5 true dwarfs per plot
Description: The objective of these experiments is to determine if there is a greenhouse to field translation of results with selected GA compounds with respect to rescue of constitutively GA-deficient transgenic dwarf soybeans and elongation of wild-type plants. […] For the first field trial, the solutions previously used for the second greenhouse test, and stored in the freezer, are employed. […] For comparison, freshly prepared solutions of GA3 are also employed. The compounds tested included kaurenoic acid, fresh GA3, stored GA3, GA3-3-acetate, GA5, GA9, and GA12. […] Seeds of line […] are imbibed for 8 hours. Untreated dry seeds served as controls. After imbibition, the remaining solutions are returned to the freezer. Seeds are kept on the benchtop at room temperature overnight. […] Untreated dry seeds served as controls. Following planting line 719, all plots (both […] and line 719) are compacted by driving an all-terrain vehicle over the planted rows twice, and watered. All GA solutions are discarded. The results are shown in Table 15 for constitutively GA-deficient transgenic dwarf line 719 only as insufficient […] germinated to make any useful observations. Observations included number of plants that germinated, number rescued, and visual observations. Two points should be noted concerning the data in Table 15. […] Next, the number of dwarfs not rescued in any treatment is subtracted from 8.5.

[4] = system: constitutively GA-deficient transgenic dwarf soybean line 719; assay: Fifth and sixth field tests, emergence after seed imbibition; format: in vivo, Glycine max; details: for Total Emerged: 50 seeds imbibed 5 hours
Method: Fresh stock solutions of compounds are prepared for this test. Kaurenoic acid is tested at 0.025 and 0.25 mg/ml; GA3 is tested at 0.025, 0.25, and 0.5 mg/ml; GA3-3-acetate at 0.025 and 0.25 mg/ml; GA5 at 0.025 and 0.25 mg/ml; GA9 at 0.025 and 0.04 mg/ml; and GA12 at 0.025 and 0.25 mg/ml. Stock solutions are prepared in ethanol in 50 ml plastic centrifuge tubes; deionized water is then added to make up the volumes to 30 ml. The final solutions contained 300 μl ethanol in 30 mls. […] Seeds are imbibed for 6 hours, and planted 1″ deep in a single row in moist to wet soil. They are then covered with dry soil, and the row is compacted twice with an all-terrain vehicle. Untreated dry seeds served as controls. The GA solutions are placed on dry ice until reuse the next day.
The next day, additional seeds of constitutive transgenic dwarf line 719 (50 seeds/treatment) are imbibed in the remaining treatment solutions for 5 hours, and planted in moist soil. The rows are compacted twice.

Compound | Observation on Wild-Type Line A3237 [1] | Significant Visual Observations on Line 719 ([2]; 0.0025 mg/ml) | Significant Visual Observations on Line 719 ([2]; 0.025 mg/ml) | Significant Visual Observations on Line 719 ([2]; 0.25 mg/ml) | field result on line 719 in words [3] | No. of Dwarfs Not Rescued ([3]; stored solution 0.0025 mg/ml) | Total Plants ([3]; stored solution 0.0025 mg/ml) | % of Dwarfs Rescued ([3]; stored solution 0.0025 mg/ml) | No. of Dwarfs Not Rescued ([3]; stored solution 0.025 mg/ml) | Total Plants ([3]; stored solution 0.025 mg/ml) | % of Dwarfs Rescued ([3]; stored solution 0.025 mg/ml) | No. of Dwarfs Not Rescued ([3]; stored solution 0.25 mg/ml) | Total Plants ([3]; stored solution 0.25 mg/ml) | % of Dwarfs Rescued ([3]; stored solution 0.25 mg/ml) | Total Emerged ([4]; 0.025 mg/ml) | Total Emerged ([4]; 0.25 mg/ml) | Visual Observations on Transgenic Line 719 ([4]; 0.025 mg/ml) | Visual Observations on Transgenic Line 719 ([4]; 0.25 mg/ml)
C=C1C[C@]23C[C@H]1CC[C@H]2[C@]1(C)CCC[C@@](C)(C(=O)O)[C@H]1[C@@H]3C(=O)O [GA12] | −1 | Poor rescue | Incomplete rescue | good rescue, with no overelongation | good emergence | 5 | 20 | 41.2% | 4 | 22 | 52.9% | 0 | 20 | 100% | 28 | 9 |  | 
C=C1C[C@@]23CC[C@H]4[C@@](C)(CCC[C@@]4(C)C(=O)O)[C@@H]2CC[C@@H]1C3 [kaurenoic acid] | 0 | Poor rescue | Poor rescue | Poor rescue | poor uniformity in plant height | 5 | 23 | 41.2% | 4 | 17 | 52.9% | 6 | 22 | 29.4% | 20 | 10 | Poor rescue | Poor stand

From patent publication US6723897B2, “Methods for controlling gibberellin levels” (Monsanto Technology, LLC, priority 1998, dated 2004)
